Converted amounts (≈) assume the structure as drawn. Counter-ions that a name gives are not always drawn. Like-named read-outs stand apart in the source and are kept apart here.
Key:
prion model [1] = assay: organism not typed; type: cell-based
prion model [2] = type: biochemical
prion model [3] = type: cell-based; conditions: ethylene oxide 600 mg/L, 18 mins, initial count 8.5

Structure (SMILES) | concentration showing at least some effect on growth of the prion model (MIC test) (prion model [1]) | activity at inhibiting the growth of the prion model in culture media (prion model [1]) | also measured
Cl [HCl] | ~0.1 N |  | 
[Mn+2] [Manganese] | ~100 mg/L | measurable activity | 
[Na+].[OH-] [NaOH, sodium hydroxide] | ~0.01 N | effective | 
CC(=O)OO [Peracetic acid] |  |  | breakdown of the protein (prion model [2]): break down the protein to a form which is inactive; MIC (prion model [1]; read-out: concentration showing at least some effect on growth of the prion model (MIC test)): ~600 µg/mL (≈ 7.89 mM)
C1CO1 [ethylene oxide] |  |  | Prion count in Logs (prion model [3]; 54° C., 40% RH): 4.7 Logs; Prion count in Logs (prion model [3]; 70° C., 100% RH): 5.0 Logs
NC[C@@H]1O[C@H](O[C@H]2[C@@H](O)[C@H](O[C@@H]3[C@@H](O)[C@H](N)C[C@H](N)[C@H]3O[C@H]3O[C@H](CN)[C@@H](O)[C@H](O)[C@H]3N)O[C@@H]2CO)[C@H](N)[C@@H](O)[C@@H]1O.O=S(=O)(O)O [neomycin sulphate] | ~125 mg/L | measurable activity | 
O=[N+]([O-])[O-].[Ag+] [silver nitrate] | ~30 mg/L | measurable activity | 

From patent publication US7129080B2 (priority 2001, dated 2006)
